The experiment deals with PD-1/PD-L1 interaction (PD-1-Ig / PD-L1-His) (Homo sapiens (Human), UniProt Q9NZQ7). Kind of experiment: PD-1/PD-L1 Homogenous Time-Resolved Fluorescence (HTRF) binding assay. Conditions: PD-1/PD-L1 HTRF binding assay; value given as range class; read-out: Range or IC50.
Chain of PD-1/PD-L1 interaction (PD-1-Ig / PD-L1-His) (Q9NZQ7 other isoform, or with tags, fused parts or gaps): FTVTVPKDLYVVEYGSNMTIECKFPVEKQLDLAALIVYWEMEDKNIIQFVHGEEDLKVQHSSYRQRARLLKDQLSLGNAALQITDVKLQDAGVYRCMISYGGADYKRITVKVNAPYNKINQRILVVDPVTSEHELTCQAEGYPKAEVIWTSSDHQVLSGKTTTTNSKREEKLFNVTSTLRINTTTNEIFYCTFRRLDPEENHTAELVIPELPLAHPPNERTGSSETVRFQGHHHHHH

As a reminder, the IC50 is the concentration that inhibits the measured activity by half. As for `Cc1c(OCCCN2CCCCC2)cccc1-c1ccnc(COc2cc(OCc3cncc(C#N)c3)c(CN[C@@](C)(CO)C(=O)O)cc2Cl)c1C` [Example 2015, (S)-2-((5-chloro-2-((5-cyanopyridin-3-yl)methoxy)-4-((3-methyl-4-(2-methyl-3-(3-(piperidin-1-yl)propoxy)phenyl)pyridin-2-yl)methoxy)benzyl)amino)-3-hydroxy-2-methylpropanoic acid], the IC50 is 1 to 10 nM. On to `CCC(CO)(CO)NCc1cc(Cl)c(OCc2nccc(-c3cccc(OCCCN4CCCCC4)c3C)c2C)cc1OCc1cncc(C#N)c1` [Example 2016, 5-((4-chloro-2-(((1-hydroxy-2-(hydroxymethyl)butan-2-yl)amino)methyl)-5-((3-methyl-4-(2-methyl-3-(3-(piperidin-1-yl)propoxy)phenyl)pyridin-2-yl)methoxy)phenoxy)methyl)nicotinonitrile], for which the half-inhibitory concentration (IC50) lay within 1 to 10 nM.
